Patent US20130045869A1, “COMPLEXES OF HERBICIDAL CARBOXYLIC ACIDS AND AMINE-CONTAINING POLYMERS OR OLIGOMERS” (Dow AgroSciences LLC, priority 2011, published 2013)
Blank lines part the entries; values can stand above or below the molecule they belong to.

Experiments:
Eye irritation testing = assay type: in vivo, New Zealand albino rabbit; details: 456 gae/L, 21 days after application, most sensitive animal; for Eye irritation score, Iris: maximum 2; for Eye irritation score, Cornea: maximum 4; for Eye irritation score, Conjunctivae: maximum 10
Experimental: Eye irritation testing was done according to guideline testing requirements specified in: (1) OECD Guideline for the Testing of Chemicals, Procedure 405 (2002), (2) U.S. EPA Health Effects Test Guidelines, OPPTS 870.2400 (1998), (3) JMAFF 12-Nouan-1847 (2000) and (4) Official Journal of the European Communities, Methods for the Determination of Toxicity, Part B.5 (Eye Irritation), Directive 2004/73/ED, 29 Apr. 2004.
Test material formulations were administered to New Zealand albino rabbit (1 to 3 animals per formulation) to determine the potential to produce eye irritation. The material was applied in a single dose to the conjuctival sac of one eye of each animal. The other eye remained untreated and served as a control. Irritation of the cornea, iris and conjunctivae were evaluated 21 days after application of the test material.
The results are reported as irritation present in the cornea, iris and conjunctivae in the most sensitive animal 21 days after application. Testing was conducted with the following concentrates: (1) 2,4-D PEI complex (Lupasol® G20 complex, 456 grams acid equivalent per liter (gae/l)), (2) 2,4-D DMA (dimethyl ammonium salt, 456 gae/l), (3) 2,4-D DMEA (dimethylethyl ammonium salt, 456 gae/l), (4) 2,4-D IPA (isopropyl ammonium salt, 456 gae/l), and (5) 2,4-D TIPA (triisopropanol ammonium salt, 456 gae/l).

[1] = Relative volatility by thermo-gravimetric analysis; assay type: physicochemical; details: TGA at 120° C.
Experimental: Using a TA Instruments (New Castle, Del.) Model TGA 2050 thermo-gravimetric analyzer, a typical thermo-gravimetric analysis (TGA) is carried out by (a) weighing out 10-20 mg of the sample, (b) loading it into an aluminum or platinum holding pan, and (c) measuring and recording the mass loss of the sample over time at a constant temperature of 120° C. The volatility of the sample is obtained as the rate of mass loss per unit time when the loss rate becomes constant (reaches steady state).
Relative volatility is defined as the ratio of the volatility of a given 2,4-D or triclopyr sample over that of the corresponding 2,4-D DMA or triclopyr triethylamine salt that was arbitrarily set at 100.

[2] = ratio to triclopyr triethylamine salt set at 100
[3] = ratio to 2,4-D DMA salt set at 100

Compound: CC(O)CN(CC(C)O)CC(C)O.O=C(O)COc1ccc(Cl)cc1Cl (stereo not drawn) [2,4-D TIPA]
Eye irritation score, Iris (Eye irritation testing): 0 | Eye irritation score, Cornea (Eye irritation testing): 3 | Eye irritation score, Conjunctivae (Eye irritation testing): 1

Compound: O=C(O)COc1nc(Cl)c(Cl)cc1Cl [triclopyr acid]
Relative volatility [1, 2]: 135

Compound: CCN(CC)CC.O=C(O)COc1nc(Cl)c(Cl)cc1Cl [triclopyr triethylamine salt]
Relative volatility [1, 2]: 100

Compound: CNC.O=C(O)COc1ccc(Cl)cc1Cl [2,4-D DMA salt, 2,4-D dimethylamine (DMA) salt]
Relative volatility [1, 3]: 100 | Eye irritation score, Iris (Eye irritation testing): 1 | Eye irritation score, Cornea (Eye irritation testing): 3 | Eye irritation score, Conjunctivae (Eye irritation testing): 3

Compound: O=C(O)COc1ccc(Cl)cc1Cl [2,4-D acid tech, 2,4-dichlorophenoxyacetic acid]
Relative volatility [1, 3]: 249

Relative volatility [1, 3]: 1201
Compound: CCCCC(CC)COC(=O)COc1ccc(Cl)cc1Cl (stereo not drawn) [2,4-D ethylhexyl ester]

Compound: CC(C)N.O=C(O)COc1ccc(Cl)cc1Cl [2,4-D IPA]
Eye irritation score, Iris (Eye irritation testing): 0 | Eye irritation score, Cornea (Eye irritation testing): 4 | Eye irritation score, Conjunctivae (Eye irritation testing): 6

Compound: CCCCOCCOC(=O)COc1nc(Cl)c(Cl)cc1Cl [triclopyr butoxyethyl ester]
Relative volatility [1, 2]: 302
